“Also recorded” adds a separate entry of the source. Like-named read-outs stand apart in the source and are kept apart here.
What was measured:
[1] = system: cholangiocarcinoma (CCA) cell lines; experiment: Short-term cell viability dose-response assay (resazurin); assay type: cell-based; settings: 120 h, read-out: IC50s from dose-response curves
From the text: (§1) The efficacy of the LB-100/adavosertib combination in the CRC cell lines encouraged further evaluation in other tumor types lacking effective treatment options. Pancreatic ductal adenocarcinomas (PDACs) are refractory to conventional therapies and the 5-year survival rates remain one of the lowest among all cancers. Similarly, despite a much lower overall incidence, cholangiocarcinomas (CCAs) share with PDACs the frequent lack of response to conventional therapies and the dismal prognosis. A panel of four PDAC cell lines and a similar one with CCA cells were assembled to assess the efficacy of LB-100 and adavosertib in these cancer types. […] To investigate the effects of the combination in the PDAC and CCA cancer cell lines systematically, the same experimental workflow used for the CRC panel was employed. First, the long-term toxicity of LB-100 and adavosertib was addressed in the PDAC and CAA cell lines (FIG. 5D and FIG. 8C). […] As observed for DiFi and RKO, the doses of adavosertib used in the synergy assays are already toxic to AspC-1, EGI, and HuCC-T1 cells (FIG. 5C, FIG. 8A, and FIG. 8B).

[2] = system: pancreatic ductal adenocarcinoma (PDAC) cell lines; experiment: as above; assay type: cell-based; settings: 120 h, read-out: IC50s from dose-response curves
From the text: as §1

[3] = system: colorectal cancer cell lines; experiment: cells
Experimental: Drug-response assays were performed in triplicate, using black-walled 384-well plates. Cells were plated with a 20% density (approximately) and incubated for approximately 24 hours to allow attachment to the plate. […] 10 µM phenylarsine oxide was used as positive control (0% cell viability) and DMSO was used as negative control (100% cell viability). 3-5 days later, culture medium was removed and resazurin was added to the plates. After 1-4 hours incubation (depending on the cell line), fluorescence (560Ex/590Em) was recorded using the EnVision (Perkin Elmer).
The effect of increasing doses of LB-100 to the Table 1 cell lines, both in short-term cell viability assays (FIG. 1A) and long-term cell proliferation assays (FIG. 1B), was analyzed. For the short-term study, cells were cultured with increasing concentrations of LB-100 for 5 days. Then the cell viability was measured using resazurin.
Adavosertib was used as the WEE1 kinase inhibitor to investigate the effect of the combination with LB-100 in the panel of CRC cells. […] Toxicity of the combination in long-term viability assays was assessed. The cells were cultured for at least ten days and the drugs were refreshed every other day. The toxicity of the single drugs in this experimental setup was assessed. […] Cells were then treated at the indicated conditions and confluence over time was measured by IncuCyte®, FIG. 3D).

[4] = system: colorectal cancer cell lines; assay type: cell-based; settings: for toxicity when combined with LB-100, long-term cell proliferation: SW-480 cells, multiple concentrations, 10-14 days (FIG. 2F)
Experimental: Finally, plates were scanned and stored.
(§2) Then the cell viability was measured using resazurin.

[5] = system: mitogenic signaling pathways and stress response pathways; experiment: Time-course Western blots; assay type: cell-based; settings: DiFi, HT-29 and SW-480 cells; vinculin control (FIG. 1C-1E)
Experimental: After the indicated culture period and drug treatment, cells were washed with cold PBS, then lysed with RIPA buffer (25 mM Tris-HCl, pH 7.6, 150 mM NaCl, 1% NP-40, 1% sodium deoxycholate, 0.1% SDS) containing Complete Protease Inhibitor cocktail and phosphatase inhibitor cocktails II and III. Samples were then centrifuged for 10 min at 15,000 x g at 4° C. and supernatant was collected. Protein concentration of the samples was normalized after performing a Bicinchoninic Acid (BCA) assay. Protein samples (denatured with DTT followed by 5 min heating at 95° C.) were then loaded in a 4-12% polyacrylamide gel. Gels were run (SDS-PAGE) for approximately 45 min at 175 volts. Proteins were transferred from the gel to a polyvinylidene fluoride (PVDF) membrane at 330 mA for 90 min. After the transfer, membranes were incubated in blocking solution (5% bovine serum albumin (BSA) in PBS with 0.1% Tween-20 (PBS-T)). Subsequently, membranes were probed with primary antibody in blocking solution (1:1000) overnight at 4° C. Membranes were then washed 3 times for 10 min with PBS-T, followed by 1 h incubation at room temperature with the secondary antibody (HRP conjugated, 1:10,000) in blocking solution. […]
as §2

[6] = system: HT-29 cells; experiment: Stress-focused drug screen of 164 compounds with or without LB-100; assay type: cell-based; settings: 2.5 µM LB-100 (sub-lethal); cell viability after three days (FIG. 2C)
From the text: These compounds were investigated in 15 different concentrations using a literature-based concentration range in order to obtain dose-response curves for each of these drugs.

[7] = system: SW-480 cells; experiment: as above; assay type: cell-based; settings: 2.5 µM LB-100 (sub-lethal); cell viability after three days; 15 concentrations (FIG. 2B)
From the text: (§3) To identify stress-targeted drugs that can be combined with LB-100 to kill cancer cells, a library of 164 compounds was built targeting the different stress responses associated with a malignant phenotype (i.e., proteotoxic stress, oxidative stress, DNA damage stress, mitotic stress, metabolic stress, and apoptosis evasion). These compounds were investigated in 15 different concentrations using a literature-based concentration range in order to obtain dose-response curves for each of these drugs.

[8] = system: RBE cholangiocarcinoma cells; experiment: as above; assay type: cell-based; settings: stress-focused screen with LB-100 vs control (FIG. 5A)
From the text: as §3

Structure (SMILES)	toxicity in the presence of LB-100 vs control (normalized AUC) [6]	toxicity in the presence of LB-100 vs control (normalized AUC) [7]	increased drug efficacy in the presence of LB-100 (normalized AUC) [8]	further results
CN1CCN(C(=O)[C@@H]2[C@H](C(=O)O)[C@H]3CC[C@@H]2O3)CC1 (racemic) [LB-100]				IC50 [1]: ≥ 4700 nM; IC50 [2]: ≥ 3200 nM; cytotoxicity, short-term cell viability [3]: moderate toxicity in the lower micro molar range; cytotoxicity, long-term cell proliferation [4]: moderate toxicity in the lower micro molar range; activation of mitogenic signaling and stress response pathways [5]: activates mitogenic signaling pathways and engages stress response pathways
N#Cc1cnc(Nc2cc(NC[C@H]3CNCCO3)c(C(F)(F)F)cn2)cn1 [CCT-245737]	increased toxicity			
CN(C)CC#Cc1ccc(OCCCc2sc(N3CCc4cccc(C(=O)Nc5nc6ccccc6s5)c4C3)nc2C(=O)O)c(F)c1 [Compound A-1155463]		increased in the presence of LB-100		toxicity when combined with LB-100, long-term cell proliferation [4]: increased toxicity
N[C@@H]1CCCN(c2c(Br)cnc3[nH]cc(NC(=O)C4CC4)c23)C1 [GDC-0575]	LB-100 increased the toxicity	among the bottom 5% normalized AUCs	among the top 5% in increased drug efficacy	
CCN(CC)CCOc1ccc(Nc2ncc3cc(-c4c(Cl)cccc4Cl)c(=O)n(C)c3n2)cc1 [PD0166285]		among the bottom 5% normalized AUCs		
Cn1cc(-c2cnn3c(N)c(Br)c([C@@H]4CCCNC4)nc23)cn1 [SCH-900776]	increased toxicity		among the top 5% in increased drug efficacy	
C=CCn1c(=O)c2cnc(Nc3ccc(N4CCN(C)CC4)cc3)nc2n1-c1cccc(C(C)(C)O)n1 [adavosertib]	LB-100 increased the toxicity	among the bottom 5% normalized AUCs	among the top 5% in increased drug efficacy	IC50 ([1]; range across CCA cell lines, 5 days, resazurin (FIG. 5C)): 100 to 370 nM; IC50 ([2]; range across four PDAC cell lines, 5 days, resazurin (FIG. 8A, 8B)): 300 to 1700 nM; IC50 ([3]; 120 h, read-out: IC50s from dose-response curves): 180 to 1000 nM; tolerance to single drug, long-term viability ([4]; DLD1, HCT-116 and SW-480 cells (FIG. 3C)): largely tolerant to up to 500 nM; toxicity when combined with LB-100, long-term cell proliferation [4]: increased toxicity
CNCc1ccc(-c2cc(-c3nc(-c4ccc(S(=O)(=O)C(C)C)cc4)cnc3N)on2)cc1 [berzosertib]			among the top 5% in increased drug efficacy	
CC1(C)CCC(c2ccc(Cl)cc2)=C(CN2CCN(c3ccc(C(=O)NS(=O)(=O)c4ccc(N[C@H](CCN5CCOCC5)CSc5ccccc5)c(S(=O)(=O)C(F)(F)F)c4)cc3)CC2)C1 [navitoclax]		increased in the presence of LB-100		
COc1cccc(OCCCN)c1-c1cc(Nc2cnc(C#N)cn2)n[nH]1 [prexasertib]		among the bottom 5% normalized AUCs; also recorded: increased toxicity	among the top 5% in increased drug efficacy	toxicity when combined with LB-100, long-term cell proliferation [4]: increased toxicity
Cc1cnc(NC(=O)Nc2cc(Br)c(C)cc2OC[C@@H]2CNCCO2)cn1 [rabusertib]		among the bottom 5% normalized AUCs; also recorded: increased toxicity	among the top 5% in increased drug efficacy	
